Test results published in article PMC11536340, “A Dynamic Loop in Halohydrin Dehalogenase HheG Regulates Activity and Enantioselectivity in Epoxide Ring Opening” (ACS Catalysis, 2024).
Where two headings read alike, the source gives them in different places.

Target: T1, HheG (Ilumatobacter coccineus, UniProt Z9P531QQL2, M65F, form not given)
T1 construct: homotetramer
T1 sequence (Z9P531QQL2 21-282 M65F): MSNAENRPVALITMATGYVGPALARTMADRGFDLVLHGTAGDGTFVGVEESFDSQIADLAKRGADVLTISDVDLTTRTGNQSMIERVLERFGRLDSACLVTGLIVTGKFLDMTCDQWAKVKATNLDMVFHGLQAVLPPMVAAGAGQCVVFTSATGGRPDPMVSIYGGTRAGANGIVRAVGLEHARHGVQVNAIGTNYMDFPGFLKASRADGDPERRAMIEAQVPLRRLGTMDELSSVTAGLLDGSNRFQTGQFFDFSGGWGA
Assay: BTB (bromothymol blue) pH-indicator assay, initial rates, Hill fit
Type: biochemical
Conditions: 2 mM MOPS pH 7.0
Text: BTB (bromothymol blue) pH-indicator assay, initial rates, Hill fit on HheG

SMILES	Km (cyclohexene oxide fixed at 100 mM, Hill coefficient n 3.94 ± 0.29, read-out: azide / K50)	Km (azide fixed at 60 mM, Hill coefficient n 3.33 ± 0.27, read-out: cyclohexene oxide / K50)
[N-]=[N+]=[N-] [azide]	10.1 ± 0.21 mM	–
C1CCC2OC2C1 (centres unmarked) [compound 1, cyclohexene oxide]	–	28 ± 0.64 mM
